Results published in patent EP4745135A1 (Gluetacs Therapeutics (Shanghai) Co., Ltd., priority 2023, dated 2025).

Experiments:
WEE1 = biological target: T1, WEE1 (Homo sapiens, UniProt P30291+Q96SW2); assay: Western blot, degradation of substrate protein in hPBMCs; type: cell-based; conditions: 24 hours treatment, compounds at 50 nM and 500 nM (concentration behind the class not stated)
T1 construct: effects of the compounds of the present disclosure on the expression of target proteins in cells; endogenous in cells; host or cells: human PBMCs (Milecell Biotechnologies)
T1 sequence (P30291 whole entry): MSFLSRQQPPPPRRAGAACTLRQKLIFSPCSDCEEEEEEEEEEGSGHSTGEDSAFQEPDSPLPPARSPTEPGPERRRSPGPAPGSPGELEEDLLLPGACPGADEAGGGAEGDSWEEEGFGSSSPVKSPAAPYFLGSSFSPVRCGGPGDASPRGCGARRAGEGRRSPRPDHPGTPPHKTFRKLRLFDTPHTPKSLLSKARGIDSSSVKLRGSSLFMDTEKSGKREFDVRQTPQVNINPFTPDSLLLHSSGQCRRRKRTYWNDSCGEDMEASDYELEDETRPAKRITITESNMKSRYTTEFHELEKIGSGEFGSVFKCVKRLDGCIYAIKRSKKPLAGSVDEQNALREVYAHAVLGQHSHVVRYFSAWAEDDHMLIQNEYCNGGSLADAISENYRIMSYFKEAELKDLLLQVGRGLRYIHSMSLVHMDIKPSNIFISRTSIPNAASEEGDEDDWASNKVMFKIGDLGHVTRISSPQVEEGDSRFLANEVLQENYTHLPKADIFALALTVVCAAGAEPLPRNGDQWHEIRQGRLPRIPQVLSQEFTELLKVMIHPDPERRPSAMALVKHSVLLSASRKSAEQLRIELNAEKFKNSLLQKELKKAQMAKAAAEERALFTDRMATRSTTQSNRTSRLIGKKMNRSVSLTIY
T1 sequence (Q96SW2 whole entry): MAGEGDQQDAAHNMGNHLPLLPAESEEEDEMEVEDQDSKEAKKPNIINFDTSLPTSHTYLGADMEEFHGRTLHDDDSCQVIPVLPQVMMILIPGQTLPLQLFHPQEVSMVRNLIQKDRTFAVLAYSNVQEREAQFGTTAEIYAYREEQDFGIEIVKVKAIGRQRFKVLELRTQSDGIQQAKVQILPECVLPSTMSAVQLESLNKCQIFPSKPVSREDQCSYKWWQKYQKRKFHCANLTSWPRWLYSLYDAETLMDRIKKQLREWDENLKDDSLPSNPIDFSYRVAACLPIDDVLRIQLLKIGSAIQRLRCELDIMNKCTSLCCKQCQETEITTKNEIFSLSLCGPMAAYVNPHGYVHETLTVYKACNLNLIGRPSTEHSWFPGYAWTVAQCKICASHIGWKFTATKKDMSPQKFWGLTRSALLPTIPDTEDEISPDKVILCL
T1 sequence (Q16531 whole entry partner): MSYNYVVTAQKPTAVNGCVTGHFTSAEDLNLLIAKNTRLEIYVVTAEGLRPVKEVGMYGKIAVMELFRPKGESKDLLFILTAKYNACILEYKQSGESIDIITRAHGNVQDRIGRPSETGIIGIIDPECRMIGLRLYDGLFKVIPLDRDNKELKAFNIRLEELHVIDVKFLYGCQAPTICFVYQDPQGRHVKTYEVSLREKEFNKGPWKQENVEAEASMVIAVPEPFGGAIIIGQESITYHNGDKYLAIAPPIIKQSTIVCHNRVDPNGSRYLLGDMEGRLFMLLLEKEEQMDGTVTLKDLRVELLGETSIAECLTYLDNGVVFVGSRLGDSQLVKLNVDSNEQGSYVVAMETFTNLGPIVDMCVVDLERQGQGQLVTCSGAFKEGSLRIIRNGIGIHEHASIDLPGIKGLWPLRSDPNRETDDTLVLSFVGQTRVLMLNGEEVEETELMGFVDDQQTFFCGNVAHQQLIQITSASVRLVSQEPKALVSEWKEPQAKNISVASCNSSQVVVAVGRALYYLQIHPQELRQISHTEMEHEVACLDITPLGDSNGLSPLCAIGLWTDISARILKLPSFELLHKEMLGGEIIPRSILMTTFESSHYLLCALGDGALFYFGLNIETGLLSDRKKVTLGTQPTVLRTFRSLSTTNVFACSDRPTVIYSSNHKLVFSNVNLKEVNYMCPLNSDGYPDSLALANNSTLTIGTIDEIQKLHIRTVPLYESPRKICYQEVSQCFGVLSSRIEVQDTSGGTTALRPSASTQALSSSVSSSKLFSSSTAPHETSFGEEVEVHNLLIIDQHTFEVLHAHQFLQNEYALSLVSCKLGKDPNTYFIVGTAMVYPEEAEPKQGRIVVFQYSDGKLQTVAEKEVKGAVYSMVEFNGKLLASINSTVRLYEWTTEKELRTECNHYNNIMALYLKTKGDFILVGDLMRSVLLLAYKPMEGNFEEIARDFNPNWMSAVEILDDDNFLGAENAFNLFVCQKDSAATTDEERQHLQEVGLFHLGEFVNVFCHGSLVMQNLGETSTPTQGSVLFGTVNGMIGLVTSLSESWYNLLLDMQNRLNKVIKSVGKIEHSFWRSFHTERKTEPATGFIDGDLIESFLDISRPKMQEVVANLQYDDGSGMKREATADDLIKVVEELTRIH

CK1α = biological target: T2, CK1α (Homo sapiens, UniProt P48729+Q96SW2); assay: as above; type: cell-based; conditions: 24 hours treatment, compounds at 50 nM and 500 nM (concentration behind the class not stated)
T2 construct: effects of the compounds of the present disclosure on the expression of target proteins in cells; endogenous in cells; host or cells: human PBMCs (Milecell Biotechnologies)
T2 sequence (P48729 whole entry): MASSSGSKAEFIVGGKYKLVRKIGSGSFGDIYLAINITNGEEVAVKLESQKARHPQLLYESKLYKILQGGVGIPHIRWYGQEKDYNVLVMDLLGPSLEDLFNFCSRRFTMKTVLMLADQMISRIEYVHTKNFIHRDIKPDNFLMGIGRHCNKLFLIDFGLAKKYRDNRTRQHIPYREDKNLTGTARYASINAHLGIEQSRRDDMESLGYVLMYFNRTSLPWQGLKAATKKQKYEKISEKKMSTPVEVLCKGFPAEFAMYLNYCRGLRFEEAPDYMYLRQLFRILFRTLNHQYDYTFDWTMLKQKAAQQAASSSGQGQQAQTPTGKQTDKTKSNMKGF
T2 sequence (Q96SW2 whole entry): as the sequence (Q96SW2 whole entry) above
T2 sequence (Q16531 whole entry partner): as the sequence (Q16531 whole entry partner) above

IKZF3 = biological target: T3, IKZF3 (Homo sapiens, UniProt Q96SW2+Q9UKT9); assay: as above; type: cell-based; conditions: 24 hours treatment, compounds at 50 nM and 500 nM (concentration behind the class not stated)
T3 construct: effects of the compounds of the present disclosure on the expression of target proteins in cells; endogenous in cells; host or cells: human PBMCs (Milecell Biotechnologies)
T3 sequence (Q9UKT9 whole entry): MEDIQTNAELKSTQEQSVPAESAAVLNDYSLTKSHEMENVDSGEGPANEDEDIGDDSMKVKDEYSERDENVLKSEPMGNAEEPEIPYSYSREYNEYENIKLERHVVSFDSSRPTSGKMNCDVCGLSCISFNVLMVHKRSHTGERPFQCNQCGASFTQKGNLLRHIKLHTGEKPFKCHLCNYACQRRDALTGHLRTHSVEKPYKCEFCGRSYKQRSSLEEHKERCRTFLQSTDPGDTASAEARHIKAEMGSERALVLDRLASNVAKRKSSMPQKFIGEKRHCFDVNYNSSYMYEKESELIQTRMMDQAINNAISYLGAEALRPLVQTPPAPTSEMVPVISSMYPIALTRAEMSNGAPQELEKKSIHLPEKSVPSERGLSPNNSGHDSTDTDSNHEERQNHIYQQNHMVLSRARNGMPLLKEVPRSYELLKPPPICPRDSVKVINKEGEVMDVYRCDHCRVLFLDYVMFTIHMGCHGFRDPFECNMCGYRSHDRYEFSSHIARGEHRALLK
T3 sequence (Q96SW2 whole entry): as the sequence (Q96SW2 whole entry) above
T3 sequence (Q16531 whole entry partner): as the sequence (Q16531 whole entry partner) above

IKZF2 = biological target: T4, IKZF2 (Homo sapiens, UniProt Q96SW2+Q9UKS7); assay: as above; type: cell-based; conditions: 24 hours treatment, compounds at 50 nM and 500 nM (concentration behind the class not stated)
T4 construct: effects of the compounds of the present disclosure on the expression of target proteins in cells; endogenous in cells; host or cells: human PBMCs (Milecell Biotechnologies)
T4 sequence (Q9UKS7 whole entry): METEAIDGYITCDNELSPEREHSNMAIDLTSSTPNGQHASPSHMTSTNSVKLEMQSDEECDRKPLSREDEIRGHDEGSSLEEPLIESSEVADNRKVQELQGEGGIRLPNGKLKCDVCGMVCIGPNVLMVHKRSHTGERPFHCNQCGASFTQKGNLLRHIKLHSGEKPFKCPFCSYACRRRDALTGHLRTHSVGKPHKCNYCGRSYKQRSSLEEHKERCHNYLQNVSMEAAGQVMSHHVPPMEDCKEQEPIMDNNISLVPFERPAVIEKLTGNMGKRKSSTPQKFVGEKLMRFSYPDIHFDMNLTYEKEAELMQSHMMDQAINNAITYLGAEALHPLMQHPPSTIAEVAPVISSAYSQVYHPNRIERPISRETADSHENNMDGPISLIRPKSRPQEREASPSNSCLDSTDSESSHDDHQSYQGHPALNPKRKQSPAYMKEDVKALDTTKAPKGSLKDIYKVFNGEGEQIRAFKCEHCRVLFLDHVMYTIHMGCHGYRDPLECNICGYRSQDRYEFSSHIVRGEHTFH
T4 sequence (Q96SW2 whole entry): as the sequence (Q96SW2 whole entry) above
T4 sequence (Q16531 whole entry partner): as the sequence (Q16531 whole entry partner) above

IKZF1 = biological target: T5, IKZF1 (Homo sapiens, UniProt Q13422+Q96SW2); assay: as above; type: cell-based; conditions: 24 hours treatment, compounds at 50 nM and 500 nM (concentration behind the class not stated)
T5 construct: effects of the compounds of the present disclosure on the expression of target proteins in cells; endogenous in cells; host or cells: human PBMCs (Milecell Biotechnologies)
T5 sequence (Q13422 whole entry): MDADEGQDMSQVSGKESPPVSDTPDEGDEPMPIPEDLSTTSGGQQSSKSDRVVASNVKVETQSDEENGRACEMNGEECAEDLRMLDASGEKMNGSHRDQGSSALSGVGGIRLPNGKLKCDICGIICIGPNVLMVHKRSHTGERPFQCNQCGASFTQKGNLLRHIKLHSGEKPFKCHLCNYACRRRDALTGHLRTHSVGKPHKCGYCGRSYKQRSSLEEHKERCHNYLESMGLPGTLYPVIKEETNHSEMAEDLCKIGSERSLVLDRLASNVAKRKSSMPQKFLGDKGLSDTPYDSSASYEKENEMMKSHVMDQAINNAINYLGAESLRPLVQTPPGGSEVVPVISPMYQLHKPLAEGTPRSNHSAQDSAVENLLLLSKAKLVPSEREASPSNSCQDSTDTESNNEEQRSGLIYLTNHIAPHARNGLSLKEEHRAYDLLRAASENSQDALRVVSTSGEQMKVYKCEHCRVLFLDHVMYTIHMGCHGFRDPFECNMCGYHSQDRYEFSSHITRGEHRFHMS
T5 sequence (Q96SW2 whole entry): as the sequence (Q96SW2 whole entry) above
T5 sequence (Q16531 whole entry partner): as the sequence (Q16531 whole entry partner) above

[1] = biological target: T6, human Cereblon WT GST-tagged protein (Homo sapiens, UniProt Q96SW2); assay: CRBN-binding affinity, HTRF (CEREBLON BINDING kit); conditions: for inhibition at 0.5 µM: read-out: Inhibition Rate at 0.5 µM (%); for inhibition at 2 µM: read-out: Inhibition Rate at 2 µM (%)
T6 construct: purchased CISBIO 64BDCRBNPEH
T6 sequence (Q96SW2 whole entry): as the sequence (Q96SW2 whole entry) above

GSPT1 = assay: Western blot, degradation of substrate protein in hPBMCs; type: cell-based, Human; conditions: 24 hours treatment, compounds at 50 nM and 500 nM (concentration behind the class not stated)

Row | inhibition at 0.5 µM [1] [%] | inhibition at 2 µM [1] [%] | SMILES | Wee1 substrate protein remaining % (WEE1) | CK1α substrate protein remaining % (CK1α) | IKZF3 substrate protein remaining % (IKZF3) | IKZF2 substrate protein remaining % (IKZF2) | IKZF 1 substrate protein remaining % (IKZF1) | GSPT1 substrate protein remaining % (GSPT1)
1 | 60 to 80 | 80 to 100 | Cc1nc(C2CCN(Cc3cccc4c3CN(C3CCC(=O)NC3=O)C4=S)CC2)c2ccsc2n1 (stereo not shown) [GT-08932, 3-(4-((4-(2-methylthieno[2,3-d]pyrimidin-4-yl)piperidin-1-yl)methyl)-1-thioxoisoindolin-2-yl)piperidine-2,6-dione] | A (0% ≤ substrate protein remaining % ≤ 80%) | B (80%< substrate protein remaining %≤ 100%) | B (80%< substrate protein remaining %≤ 100%) | B (80%< substrate protein remaining %≤ 100%) | B (80%< substrate protein remaining %≤ 100%) | B (80%< substrate protein remaining %≤ 100%)
2 | 53 to 60 | 60 to 80 | Cc1nc(C2CCN(Cc3cccc4c3CN(C3CCC(=O)NC3=O)C4=S)CC2)c2c3c(sc2n1)CCCC3 (stereo not shown) [GT-08933, 3-(4-((4-(2-methyl-5,6,7,8-tetrahydrobenzo[4,5]thieno[2,3-d]pyrimidin-4-yl)piperidin-1-yl)methyl)-1-thioxoisoindolin-2-yl)piperidine-2,6-dione] | A (0% ≤ substrate protein remaining % ≤ 80%) | B (80%< substrate protein remaining %≤ 100%) | B (80%< substrate protein remaining %≤ 100%) | B (80%< substrate protein remaining %≤ 100%) | A (0% ≤ substrate protein remaining % ≤ 80%) | A (0% ≤ substrate protein remaining % ≤ 80%)
3 | 60 to 80 | 80 to 100 | Cc1nc(C2CCN(Cc3cccc4c3CN(C3CCC(=O)NC3=O)C4=S)CC2)c2c3c(sc2n1)CCC3 (stereo not shown) [GT-08935, 3-(4-((4-(2-methyl-6,7-dihydro-5H-cyclopenta[4,5]thieno[2,3-d]pyrimidin-4-yl)piperidin-1-yl)methyl)-1-thioxoisoindolin-2-yl)piperidine-2,6-dione] | A (0% ≤ substrate protein remaining % ≤ 80%) | B (80%< substrate protein remaining %≤ 100%) | A (0% ≤ substrate protein remaining % ≤ 80%) | B (80%< substrate protein remaining %≤ 100%) | A (0% ≤ substrate protein remaining % ≤ 80%) | A (0% ≤ substrate protein remaining % ≤ 80%)
4 | 60 to 80 | 80 to 100 | O=C1CCC(N2Cc3c(CN4CCC(c5ncc6ccsc6n5)CC4)cccc3C2=S)C(=O)N1 (stereo not shown) [GT-08936, 3-(4-((4-(thieno[2,3-d]pyrimidin-2-yl)piperidin-1-yl)methyl)-1-thioxoisoindolin-2-yl)piperidine-2,6-dione] | A (0% ≤ substrate protein remaining % ≤ 80%) | B (80%< substrate protein remaining %≤ 100%) | B (80%< substrate protein remaining %≤ 100%) | B (80%< substrate protein remaining %≤ 100%) | A (0% ≤ substrate protein remaining % ≤ 80%) | A (0% ≤ substrate protein remaining % ≤ 80%)
5 | 40 to 53 | 60 to 80 | CC(C)c1cc2c(C3=CCN(Cc4cccc5c4CN(C4CCC(=O)NC4=O)C5=S)CC3)ncnc2s1 (stereo not shown) [GT-08954, 3-(4-((4-(6-isopropylthieno[2,3-d]pyrimidin-4-yl)-3,6-dihydropyridin-1(2H)-yl)methyl)-1-thioxoisoindolin-2-yl)piperidine-2,6-dione] | A (0% ≤ substrate protein remaining % ≤ 80%) | B (80%< substrate protein remaining %≤ 100%) | B (80%< substrate protein remaining %≤ 100%) | B (80%< substrate protein remaining %≤ 100%) | B (80%< substrate protein remaining %≤ 100%) | A (0% ≤ substrate protein remaining % ≤ 80%)
